Results: patent US9606132B2, “Methods of monitoring adherence to lurasidone therapy” (Ameritox, Ltd., priority 2013, dated 2017)
Where two headings read alike, the source gives them in different places.

What was measured:
[1] = in vivo
Procedure: Urine samples of normally metabolizing human subjects who were known to be taking chronic doses of lurasidone were tested for the presence of lurasidone and eleven metabolites (excluding isomeric metabolites). Each patient sample was analyzed twice to ensure accuracy. Due to the high probability for false identification of isobars, MS/MS data was collected and selectively looked at to add confidence to the identification.

[2] = cited from earlier work; for presence in serum: 40 mg oral dosing of radiolabelled lurasidone
[3] = cited from earlier work; for presence in serum: mice, rats, dogs (M8 also monkeys), 10 mg/kg oral administration of radiolabelled lurasidone

## O=C(O)C1CCCCC1CN1C(=O)C2C(C1=O)[C@@H]1CC[C@H]2C1O (some centres unmarked) [M5]
[1]; human
  detectability in human urine (Example 1): neither metabolite ID-20220 (M5) nor metabolite ID-20219 (M11) were found to be excreted through human urine in detectable amounts

## O=C1C2C(C(=O)N1CC1CCCCC1CN1CCN(c3nsc4ccccc34)CC1)[C@@H]1CC[C@H]2C1O (some centres unmarked) [M8/M9, Hydroxy-Lurasidone]
[1]
  detectability in human urine (Example 1): present in detectable quantities in each test of each subject's urine sample

## O=C1C2C(C(=O)N1CC1CCCCC1CN1CCN(c3nsc4ccccc34)CC1)[C@@H]1CC[C@H]2C1O (some centres unmarked) [M8]
[2]; humans
  presence in serum: present in an unspecified low amount
[3]
  presence in serum: present in an unspecified low amount

## O=C1C2C(C(=O)N1CC1CCCCC1CN1CCN(c3nsc4ccccc34)CC1)[C@@H]1CC[C@H]2C1O (some centres unmarked) [M9]
[3]; rats and dogs
  identification in serum: identified in rats and dogs

## O=C1C2C(C(=O)N1CC1CCCCC1CN1CCN(c3n[s+]([O-])c4ccccc34)CC1)[C@H]1CC[C@@H]2C1 (some centres unmarked) [M10]
[1]
  detectability in human urine (Example 1): not present at any significant amount

## O=C(O[C@@H]1O[C@H](C(=O)O)[C@@H](O)[C@H](O)[C@H]1O)C1CCCCC1CN1C(=O)C2C(C1=O)[C@H]1CC[C@@H]2C1 (some centres unmarked) [M11 Gluc]
[1]
  Lurasidone Metabolite Distribution in Human Urine (qualitative identification): ✓*

## O=C(O)C1CCCCC1CN1C(=O)C2C(C1=O)[C@H]1CC[C@@H]2C1 (some centres unmarked) [M11, 2-{(3,5-Dioxo-4-azatricyclo[5.2.1.0^2,6]dec-4-yl)methyl}cyclohexanecarboxylic acid]
[2]; plasma, post oral dosing
  share of total radioactivity in plasma: 24%
[1]; human
  detectability in human urine (Example 1): neither metabolite ID-20220 (M5) nor metabolite ID-20219 (M11) were found to be excreted through human urine in detectable amounts
[1]
  Lurasidone Metabolite Distribution in Human Urine (qualitative identification): ✓^*

## CSc1ccccc1C(=N)N1CCN(CC2CCCCC2CN2C(=O)C3C(C2=O)[C@H]2CC[C@@H]3C2)CC1 (some centres unmarked) [M21, S-Methyl Lurasidone]
[3]; any of the animal models, radiolabelled lurasidone
  detection as circulating metabolite in serum: did not detect
[1]
  detectability in human urine (Example 1): present in detectable quantities in each test of each subject's urine sample

## [H]/N=C(/c1ccccc1SC)N1CCN(CC2CCCCC2CN2C(=O)C3C(C2=O)[C@@H]2CC[C@H]3C2O)CC1 (some centres unmarked) [M22, S-Methyl Hydroxy Lurasidone]
[2]; humans
  presence in serum: present in an unspecified low amount
  share of total drug-related exposure: less than 10%
[3]
  presence in serum: present in an unspecified low amount
[3]; rabbits or monkeys
  detection in other animal models: not detected in any amount
[1]
  detectability in human urine (Example 1): present in detectable quantities in each test of each subject's urine sample
